Test results taken from ChEMBL document CHEMBL4616632, “Discovery of Cyclic Boronic Acid QPX7728, an Ultrabroad-Spectrum Inhibitor of Serine and Metallo-β-lactamases” (J Med Chem, 2020).

Experiments:
[1] = system: Pseudomonas aeruginosa; assay: Inhibition of Pseudomonas aeruginosa PAM 1154 KPC-2 assessed as assessed as minimum potentiating concentration of compound needed to reduce the MIC of biapenem by 64 fold
[2] = system: Pseudomonas aeruginosa; assay: Inhibition of Pseudomonas aeruginosa PAM 1032 KPC-2 assessed as minimum potentiating concentration of compound needed to reduce the MIC of biapenem by 64 fold
[3] = Ratio of inhibition of Pseudomonas aeruginosa PAM 1032 KPC-2 assessed as minimum potentiating concentration of compound needed to reduce the MIC of biapenem by 64 fold to inhibition of Pseudomonas aeruginosa PAM 1154 KPC-2 assessed as assessed as minimum potentiating concentration of compound needed to reduce the MIC of biapenem by 64 fold
[4] = system: Escherichia coli; assay: Inhibition of Escherichia coli EC308 SHV-5 assessed as minimum concentration of compound needed to reduce the MIC of aztreonam to 4 ug/ml
[5] = target: Beta-lactamase (Klebsiella pneumoniae) (UniProt Q93LQ9); assay: Inhibition of Klebsiella pneumoniae KP1004 KPC-2 assessed as minimum concentration of compound needed to reduce the MIC of aztreonam to 4 ug/ml
Beta-lactamase (Klebsiella pneumoniae), sequence (Q93LQ9 as listed by the source): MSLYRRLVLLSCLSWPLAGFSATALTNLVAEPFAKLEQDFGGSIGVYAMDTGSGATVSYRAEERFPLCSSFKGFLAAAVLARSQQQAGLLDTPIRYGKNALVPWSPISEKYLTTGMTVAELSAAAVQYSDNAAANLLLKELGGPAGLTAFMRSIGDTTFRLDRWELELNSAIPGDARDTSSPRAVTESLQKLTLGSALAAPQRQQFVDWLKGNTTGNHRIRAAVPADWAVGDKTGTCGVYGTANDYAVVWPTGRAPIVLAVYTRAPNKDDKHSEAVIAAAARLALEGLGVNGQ

[6] = system: Pseudomonas aeruginosa; assay: Inhibition of Pseudomonas aeruginosa PAM 2035 AmpC assessed as minimum concentration of compound needed to reduce the MIC of aztreonam to 4 ug/ml
[7] = system: Escherichia coli; assay: Inhibition of Escherichia coli EC302 TEM-10 assessed as minimum concentration of compound needed to reduce the MIC of aztreonam to 4 ug/ml
[8] = system: Klebsiella pneumoniae; assay: Inhibition of Klebsiella pneumoniae KP1009 CTX-M-15 assessed as minimum concentration of compound required to reduce the MIC of aztreonam to 4 ug/ml
[9] = system: Enterobacter cloacae; assay: Inhibition of Enterobacter cloacae ECL1002 AmpC assessed as minimum concentration of compound needed to reduce the MIC of aztreonam to 4 ug/ml
[10] = system: Acinetobacter baumannii; assay: Inhibition of Acinetobacter baumannii AB1053 OXA-72 assessed as minimum concentration of compound needed to reduce the MIC of meropenem to 8 ug/ml
[11] = target: Beta-lactamase OXA-23 (Acinetobacter baumannii) (UniProt Q9L4P2); assay: Inhibition of Acinetobacter baumannii AB1054 OXA-23 assessed as minimum concentration of compound needed to reduce the MIC of meropenem to 8 ug/ml
Beta-lactamase OXA-23 (Acinetobacter baumannii), sequence (Q9L4P2 whole entry): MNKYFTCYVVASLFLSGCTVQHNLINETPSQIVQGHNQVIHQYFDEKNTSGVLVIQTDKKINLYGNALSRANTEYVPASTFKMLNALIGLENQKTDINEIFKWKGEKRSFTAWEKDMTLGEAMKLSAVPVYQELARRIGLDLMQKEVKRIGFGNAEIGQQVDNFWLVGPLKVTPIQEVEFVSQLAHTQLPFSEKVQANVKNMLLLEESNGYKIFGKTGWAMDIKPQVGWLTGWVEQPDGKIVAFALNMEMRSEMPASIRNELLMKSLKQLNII

[12] = system: Klebsiella pneumoniae; assay: Inhibition of Klebsiella pneumoniae KP1081 NDM-1 assessed as minimum concentration of compound required to reduce the MIC of biapenem to 1 ug/ml
[13] = system: Escherichia coli; assay: Inhibition of Escherichia coli ECM6619 TEM-10 assessed as minimum concentration of compound needed to reduce the MIC of aztreonam to 4 ug/ml
[14] = system: Klebsiella pneumoniae; assay: Inhibition of Klebsiella pneumoniae KP1054 VIM-1 assessed as minimum concentration of compound required to reduce the MIC of biapenem to 1 ug/ml
[15] = system: Escherichia coli; assay: Inhibition of Escherichia coli ECM6625 SHV-5 assessed as minimum concentration of compound needed to reduce the MIC of aztreonam to 4 ug/ml
[16] = system: Klebsiella pneumoniae; assay: Inhibition of Klebsiella pneumoniae KP1160 IMP-26 assessed as minimum concentration of compound needed to reduce the MIC of meropenem to 1 ug/ml
[17] = system: Escherichia coli; assay: Inhibition of Escherichia coli KP308 SHV-5 assessed as minimum concentration of compound required to reduce the MIC of aztreonam to 4 ug/ml
[18] = Oral bioavailability in rat at 50 to 75 mg/kg by HPLC/MS analysis; format: ADME, organism-based; conditions: in vivo

Activity [1] [µg/mL] | Activity [2] [µg/mL] | Ratio [3] | MEC [4] [µg/mL] | MEC [5] [µg/mL] | MEC [6] [µg/mL] | MEC [7] [µg/mL] | MEC [8] [µg/mL] | MEC [9] [µg/mL] | MEC [10] [µg/mL] | MEC [11] [µg/mL] | MEC [12] [µg/mL] | MEC [13] [µg/mL] | MEC [14] [µg/mL] | MEC [15] [µg/mL] | MEC [16] [µg/mL] | MEC [17] [µg/mL] | bioavailability [18] [%] | MIC [13] [µg/mL] | Structure (SMILES)
5 | 5 | 1 |  |  |  |  |  |  |  |  |  |  |  |  |  |  |  |  | O=C(CSC1CNC1)N[C@H]1Cc2ccc(F)c(C(=O)O)c2OB1O
 |  |  | < 0.3 | 5 | > 20 | 2.5 | 2.5 | 2.5 |  |  |  |  |  |  |  |  |  |  | CSCC(=O)N[C@H]1Cc2ccc(Sc3nnc(N)s3)c(C(=O)O)c2OB1O
10 | 40 | 4 |  |  |  |  |  |  |  |  |  |  |  |  |  |  |  |  | O=C(Cc1cccs1)N[C@H]1Cc2ccc(F)c(C(=O)O)c2OB1O
2.5 | 40 | 16 | < 0.3 | 1.25 | 5 | 2.5 | 1.25 | 2.5 |  |  |  |  |  |  |  |  |  |  | CSCC(=O)N[C@H]1Cc2ccc(O)c(C(=O)O)c2OB1O
5 | 20 | 4 | < 0.3 | 0.6 | 10 | 1.25 | < 0.3 | 2.5 | > 20 | > 20 | > 20 | 1.25 | > 20 | 0.15 | > 20 |  |  |  | CSCC(=O)N[C@H]1Cc2ccc(F)c(C(=O)O)c2OB1O
5 | 40 | 8 |  |  |  |  |  |  |  |  |  |  |  |  |  |  |  |  | COc1ccc2c(c1C(=O)O)OB(O)[C@@H](NC(=O)Cc1cccs1)C2
 |  |  |  | 0.16 | 2.5 | 0.6 | 0.6 | 1.25 | 0.6 | 1.25 | 0.6 | 0.6 | 0.3 | 0.3 | 20 | 0.3 |  |  | COc1ccc2c(c1C(=O)O)OB(O)[C@H]1C[C@@H]21
 |  |  |  |  |  |  |  |  |  |  |  |  |  |  |  |  | 100 |  | COc1ccc2c(c1C(=O)OCOC(=O)C(C)C)OB(O)[C@@H](Sc1nncs1)C2
5 | 5 | 1 |  |  |  |  |  |  |  |  |  |  |  |  |  |  |  |  | COc1ccc2c(c1C(=O)O)OB(O)[C@@H](NC(=O)CSC1CNC1)C2
 |  |  | 0.08 | 5 | > 20 | 5 | 2.5 | 5 |  |  |  |  |  |  |  |  |  |  | CSCC(=O)N[C@H]1Cc2ccc(OCC(=O)O)c(C(=O)O)c2OB1O
 |  |  |  | 0.6 | 2.5 | 0.3 | 2.5 | 5 | 0.3 | 1.25 | 2.5 | 0.3 | 0.3 | 0.6 | > 20 | 0.6 |  |  | O=C(O)c1nccc2c1OB(O)[C@@H]1C[C@H]21
 |  |  |  | 5 | 20 | > 20 | 20 | 10 | 10 | 10 | 2.5 | > 20 | 2.5 | 20 | > 20 | 20 |  |  | COc1ccc2c(c1C(=O)O)OB(O)[C@@H](CCO)C2
 |  |  |  | 0.16 | 0.6 | 0.16 | 0.6 | 0.3 | 5 | 10 | 0.6 | 0.16 | 0.16 | 0.3 | 20 | 0.3 |  |  | O=C(O)c1cccc2c1OB(O)[C@@H]1C[C@H]21
 |  |  |  | 1.25 | 10 | 2.5 | 2.5 | 10 | > 20 | > 20 | 0.3 |  | 0.3 | 0.3 | 5 | 0.3 | 3 | 2.5 | COc1ccc2c(c1C(=O)O)OB(O)[C@@H](Sc1nncs1)C2
 |  |  |  |  |  |  |  |  |  |  |  |  |  |  |  |  | 52 |  | COc1ccc2c(c1C(=O)OCOC(C)=O)OB(O)[C@@H](Sc1nncs1)C2
